Assays:
Settings in all cases: assay detail: Kinobeads competition in P. falciparum blood-stage lysate
UniProt B9ZSI3 = assay: IC50 for competition of protein binding to Kinobeads
UniProt C0H4U0 = assay: as above
UniProt C6KT03 = assay: as above
UniProt O96198 = assay: as above
UniProt O97249 = assay: as above
UniProt Q8I2Z8 = assay: as above
UniProt Q8IAX8 = assay: as above
UniProt Q8IB44 = assay: as above
UniProt Q8IBU2 = assay: as above
UniProt Q8ID85 = assay: as above
UniProt Q8IHU0 = assay: as above
UniProt Q8IIJ8 = assay: as above
UniProt Q8IJ60 = assay: as above
UniProt Q8IJN9 = assay: as above
UniProt Q8IJS1 = assay: as above
UniProt Q8IKA0 = assay: as above
UniProt Q8IKA6 = assay: as above
UniProt Q8IKL5 = assay: as above
UniProt Q9TY95 = assay: as above
Chain of UniProt Q9TY95 (Q9TY95 whole entry): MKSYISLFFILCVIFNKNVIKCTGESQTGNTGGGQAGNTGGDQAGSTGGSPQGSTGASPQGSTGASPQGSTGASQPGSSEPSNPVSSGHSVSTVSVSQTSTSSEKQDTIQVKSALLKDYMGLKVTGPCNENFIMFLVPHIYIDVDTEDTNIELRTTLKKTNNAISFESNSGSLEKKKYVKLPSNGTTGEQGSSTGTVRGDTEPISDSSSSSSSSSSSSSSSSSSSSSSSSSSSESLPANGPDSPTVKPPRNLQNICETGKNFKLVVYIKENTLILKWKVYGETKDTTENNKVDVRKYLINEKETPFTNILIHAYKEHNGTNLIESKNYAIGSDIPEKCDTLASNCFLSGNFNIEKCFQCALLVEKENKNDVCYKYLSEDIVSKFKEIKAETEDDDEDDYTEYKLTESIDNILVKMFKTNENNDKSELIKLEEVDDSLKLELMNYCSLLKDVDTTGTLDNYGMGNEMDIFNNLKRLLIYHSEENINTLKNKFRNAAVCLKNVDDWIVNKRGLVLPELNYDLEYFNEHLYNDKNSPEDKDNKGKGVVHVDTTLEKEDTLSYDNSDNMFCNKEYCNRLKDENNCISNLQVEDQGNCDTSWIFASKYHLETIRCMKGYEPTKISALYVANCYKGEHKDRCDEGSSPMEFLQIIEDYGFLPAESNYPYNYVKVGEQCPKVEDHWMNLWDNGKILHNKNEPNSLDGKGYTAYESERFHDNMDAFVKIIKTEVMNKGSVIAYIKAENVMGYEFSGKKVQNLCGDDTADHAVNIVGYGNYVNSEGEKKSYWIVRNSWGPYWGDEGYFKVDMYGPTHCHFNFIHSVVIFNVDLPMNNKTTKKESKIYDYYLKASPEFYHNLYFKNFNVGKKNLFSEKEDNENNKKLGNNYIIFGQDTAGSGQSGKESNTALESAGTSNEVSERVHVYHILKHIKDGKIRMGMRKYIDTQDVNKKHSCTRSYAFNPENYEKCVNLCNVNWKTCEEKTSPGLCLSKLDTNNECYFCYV

A0A144A0U7 = assay: apparent dissociation constant (Kd app) from Kinobeads competition
UniProt C0H4R8 = assay: as above
UniProt C6KSQ1 = assay: as above
UniProt C6KSZ6 = assay: as above
UniProt O77344 = assay: as above
UniProt Q7KQK0 = assay: as above
UniProt Q8I442 = assay: as above
UniProt Q8I535 = assay: as above
UniProt Q8I5D4 = assay: as above
UniProt Q8I5E3 = assay: as above
UniProt Q8I5H9 = assay: as above
UniProt Q8IAM4 = assay: as above
UniProt Q8IAZ3 = assay: as above
UniProt Q8IE41 = assay: as above
UniProt Q8IEL1 = assay: as above
UniProt Q8IIW6 = assay: as above
UniProt Q8IJR8 = assay: as above
UniProt Q8IKQ9 = assay: as above
UniProt Q9U0K8 = assay: as above
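Wherever IC50 is given: native unpurified kinases from lysate captured on beads bearing immobilized kinase inhibitors, with bead-bound kinases quantified by mass spectrometry across compound doses.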

Chain of UniProt Q8IAX8 (Q8IAX8 whole entry): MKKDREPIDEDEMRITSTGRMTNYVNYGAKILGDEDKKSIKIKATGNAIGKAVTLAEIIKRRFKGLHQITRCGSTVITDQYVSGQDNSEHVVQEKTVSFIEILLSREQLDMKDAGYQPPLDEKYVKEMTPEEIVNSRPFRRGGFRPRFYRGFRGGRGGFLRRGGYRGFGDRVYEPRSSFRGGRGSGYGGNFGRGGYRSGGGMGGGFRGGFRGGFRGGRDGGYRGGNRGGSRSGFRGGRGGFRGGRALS
Chain of UniProt O97249 (O97249 whole entry): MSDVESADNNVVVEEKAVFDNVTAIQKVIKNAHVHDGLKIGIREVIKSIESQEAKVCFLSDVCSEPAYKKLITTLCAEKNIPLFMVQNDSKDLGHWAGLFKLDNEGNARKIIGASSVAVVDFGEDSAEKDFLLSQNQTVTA

With `O=c1[nH]c2ccc(Cl)cc2c(NC2CN3CCC2CC3)c1-c1nc2ccccc2[nH]1` (stereo not drawn) [CHIR-124] the IC50 (UniProt B9ZSI3) was > 20 µM, the IC50 (UniProt C0H4U0) was > 20 µM and the IC50 (UniProt C6KT03) was > 20 µM. For the same compound, the IC50 (UniProt O96198) was > 20 µM, the IC50 (UniProt O97249) was > 20 µM and the IC50 (UniProt Q8I2Z8) was > 20 µM. For the same compound, the IC50 (UniProt Q8IAX8) was > 20 µM, the IC50 (UniProt Q8IB44) was > 20 µM and the IC50 (UniProt Q8IBU2) was > 20 µM. For the same compound, the IC50 (UniProt Q8ID85) was > 20 µM, the IC50 (UniProt Q8IHU0) was > 20 µM and the IC50 (UniProt Q8IIJ8) was > 20 µM. For the same compound, the IC50 (UniProt Q8IJ60) was > 20 µM, the IC50 (UniProt Q8IJN9) was > 20 µM and the IC50 (UniProt Q8IJS1) was > 20 µM. For the same compound, the IC50 (UniProt Q8IKA0) was > 20 µM, the IC50 (UniProt Q8IKA6) was > 20 µM and the IC50 (UniProt Q8IKL5) was > 20 µM. The IC50 (UniProt Q9TY95) was > 20 µM, the Kd (A0A144A0U7) was 7.53 µM and the Kd (UniProt C0H4R8) was 4.84 µM. It also gave a Kd (UniProt C6KSQ1) of 0.168 µM, a Kd (UniProt C6KSZ6) of 1.4 µM and a Kd (UniProt O77344) of 1.28 µM. For the same compound, the Kd (UniProt Q7KQK0) was 0.621 µM, the Kd (UniProt Q8I442) was 7.1 µM and the Kd (UniProt Q8I535) was 0.0455 µM. For the same compound, the Kd (UniProt Q8I5D4) was 5.65 µM, the Kd (UniProt Q8I5E3) was 7.57 µM and the Kd (UniProt Q8I5H9) was 10.3 µM. The Kd (UniProt Q8IAM4) was 7.66 µM, the Kd (UniProt Q8IAZ3) was 9.02 µM and the Kd (UniProt Q8IE41) was 0.239 µM. It also gave a Kd (UniProt Q8IEL1) of 1.9 µM, a Kd (UniProt Q8IIW6) of 0.181 µM and a Kd (UniProt Q8IJR8) of 0.314 µM. The Kd (UniProt Q8IKQ9) was 15.3 µM and the Kd (UniProt Q9U0K8) was 4.29 µM.

From the supplement of paper PMC13386468
